Laboratory results: paper PMC7281150, “Inspired by Sea Urchins: Warburg Effect Mediated Selectivity of Novel Synthetic Non-Glycoside 1,4-Naphthoquinone-6S-Glucose Conjugates in Prostate Cancer” (Marine Drugs, 2020)
Values after ≈ are worked out from the molar mass of the structure shown. Like-named read-outs stand apart in the source and are kept apart here.

What was measured:
[1] = test system: human drug-resistant prostate cancer PC-3 cells; assay: MTT cytotoxicity in PC-3 cells; assay type: cell-based; conditions: for IC50: 24 h, read-out: IC50 (viability of PC-3 cells)
Protocol: (§1) Cell viability was determined by MTT assay. Cells were pre-incubated overnight in 96-well plates (6 × 10^3 cells/well in 100 μL/well). Then, the medium was replaced with fresh medium containing the determined compounds (100 μL/well), and cells were incubated for the indicated time. Next, 10 μL/well of (3-(4,5-dimethylthiazol-2-yl)-2,5-diphenyltetrazolium bromide) reagent were added. After 2–4 h of incubation, the media was aspirated and the plates were dried. Fifty microliters per well of DMSO were added to each well and the cell viability was measured using Infinite F200PRO reader (TECAN, Männedorf, Switzerland). Results were calculated by The GraphPad Prism software v. 7.05 (GraphPad Prism software Inc., La Jolla, CA, USA) and are represented as IC50 of the compounds against control cells treated with the solvent alone.

22Rv1 cells [2] = assay: MTT cytotoxicity in 22Rv1 cells with or without N-acetyl-L-cysteine; assay type: cell-based, human; conditions: without NaC, FBS- and glucose-free media, 48 h, read-out: IC50 (viability of 22Rv1 cells)
Protocol: as §1

PC-3 cells [3] = assay: Glucose uptake assay (2-NBDG), plate reader-based measurement; assay type: cell-based, human; conditions: PC-3, 24 h
Protocol: (§2) The effects of the synthesized substance on glucose uptake were evaluated using the Glucose Uptake Cell-Based Assay Kit (Cayman chemicals, Ann Arbor, MI, USA) and two different methods. (a) Plate reader-based measurement: PC-3 cells (12 × 10^3 cells/well) were seeded in two 96-well plates, incubated overnight, and treated with the investigated drugs in 100 µL/well of glucose-free 0.1% FBS/RPMI media for 24 h. Then, the 10 µL/well of either 2-NBDG solution (2-deoxy-2-[(7-nitro-2,1,3-benzoxadiazol-4-yl)amino]-D-glucose, 5 mg/mL, for glucose uptake measurements) or vehicle solution (for cell viability measurements) in glucose-free 0.1% FBS/RPMI media were added to each well. […] Then, for glucose uptake measurements, the 100 µL/well of PBS were added and the fluorescence was measured using Infinite F200PRO reader (TECAN, Männedorf, Switzerland); or, for the cell viability measurements, 100 µL/well of media containing MTS reagent were added to the cells and viability was measured as described before. Glucose uptake rate was normalized to the cell viability measured by MTS assay in order to measure the uptake rate exclusively in the viable cells. (b) FACS-based readout: The experiment was performed as described before. […] The plates were then incubated with 2-NBDG solution, the cells were harvested by trypsination, washed, stained with PI, and analyzed using a flow cytometry.

PC-3 cells [4] = assay: Glucose uptake assay (2-NBDG), FACS-based readout; assay type: cell-based, human; conditions: PC-3, 24 h
Protocol: as §2

PC-3 cells [5] = assay type: cell-based, human; conditions: PC-3, zVAD 100 µM, 48 h
22Rv1 cells [6] = assay: Analysis of cell cycle progression and DNA fragmentation (PI staining, FACS); assay type: cell-based, human; conditions: 22Rv1, 48 h
Protocol: Cells (2 × 10^5 cells/well) were pre-incubated overnight in 6-well plates. Then, cells were treated with the substances in 2 mL of fresh culture media/well for 48 h. Cells were harvested by trypsination, fixed in 70% EtOH, stained with PI, and analyzed by FACS Calibur (BD Bioscience, San Jose, CA, USA). The results were quantified using BD Bioscience Cell Quest Pro v.5.2.1. software (BD Bioscience, San Jose, CA, USA). The sub-G1 population was considered to reflect apoptotic cells (containing fragmented DNA).

22Rv1 cells [7] = assay: Western blotting of protein expression; assay type: cell-based, human
Protocol: (§3) Cells (10^6 cells/well) were seeded in Petri dishes (ø 6 cm) and incubated overnight. The cells were treated with the investigational drugs in fresh culture media (5 mL/dish) for 48 h. Then, cells were harvested by scratching and lysed in the lysis buffer (1% NP-40, 50 mM Tris-HCl (pH 7.6), 0.88% NaCl, 0.25% sodium cholate, 1 mM Na3VO4, 0.1 mM PMSF, protease inhibitors cocktail (cOmplete Mini EDTA-free EASYpacks, Roche, Mannheim, Germany)). Proteins were extracted and diluted with lysis buffer and loading dye, heated 5 min at 99 °C and subjected to electrophoresis in gradient Mini-PROTEAN® TGX Stain-Free^TM gels (Bio-Rad, Hercules, CA, USA). Proteins were transferred from gel to 0.2 µm pore PVDF membrane using Trans-Blot® Turbo^TM RTA Mini PVDF Trans kit (Bio-Rad) and Trans-Blot® Turbo^TM Blotting System (Bio-Rad) according to the manufactures protocol. The membrane was blocked (5% BSA in 0.05% Tween-20/TBS), treated with primary and secondary antibodies, and the signals were detected using the ECL chemiluminescence system (Thermo Scientific, Rockford, IL, USA). All procedures were performed according to the manufacturer′s protocols.

22Rv1 cells [8] = assay: Analysis of intracellular ROS level (CM-H2DCFDA, FACS); assay type: cell-based, human; conditions: 22Rv1, 0.5 μM, 2 h
Protocol: Intracellular ROS levels were accessed using the ROS-sensitive CM-H2DCFDA reagent (Cat. No. C6827, Molecular probes, Invitrogen, Eugene, OR, USA). The experiment was performed as previously described with slight modifications. In brief, 22Rv1 cells (10^5 cells/well) were seeded in 12-well plates and incubated overnight. The media was changed with freshly made pre-warmed staining solution (4 µM CM-H2DCFDA/PBS, 0.5 mL/well) and incubated in the dark (37 °C, 5% CO2) for 30 min. Then, the staining solution was exchanged with 1 mL/well of pre-warmed PBS containing the investigated compounds or H2O2 (positive control) at the indicated concentrations and the cells were incubated for 2 h. Next, the cells were trypsinized, resuspended in pre-warmed PBS (200 µL/sample) and immediately analyzed by FACS according to the manufacture′s protocol.

22Rv1 cells [9] = assay: Analysis of mitochondrial membrane potential (JC-1, FACS); assay type: cell-based, human; conditions: 22Rv1, 2 μM
Protocol: The drop down of mitochondrial membrane potential (ΔΨm) was measured using staining with ΔΨm-sensitive JC-1 dye (5,5′,6,6′-Tetrachloro-1,1′,3,3′-tetraethyl-imidacarbocyanine iodide) and flow cytometry technique. Cells (10^5 cells/well) were seeded in 12-well plates and incubated overnight. […] The cells were trypsinized, pelleted, resuspended in 100 µL of 2 µM JC-1/PBS, incubated for 1 h (37 °C, 5% CO2, in the dark), and analyzed by flow cytometry technique.

22Rv1 cells [10] = assay: Cell fractionation (mitochondrial, cytoplasmic, total) with Western blotting; assay type: cell-based, human; conditions: 22Rv1, 48 h
Protocol: as §3
The separation of cellular nuclear, mitochondrial, and cytosolic fractions was performed using the Cell Fractionation Kit ab109719 (abcam, Cambridge, MA, USA). […]

[11] = test system: human cancer HeLa S3 cells; set-up: method as in PMID 3437287; conditions: cited from earlier work

Molecule	IC50 ([1]; glucose-containing media (+Glc, 2 g/L)) [µM]	IC50 ([1]; glucose-free media (−Glc)) [µM]	higher cytotoxicity compared with SAB-14 ([1]; screening, MTT, 48 h)	IC50 (22Rv1 cells [2]) [µM]	glucose uptake (2-NBDG, plate reader), normalized to cell viability (PC-3 cells [3])	glucose uptake (2-NBDG, single cells by flow cytometry), normalized to cell viability (PC-3 cells [4])	effect of co-treatment with pan-caspase inhibitor zVAD on cytotoxic effects (PC-3 cells [5])	DNA fragmentation (sub-G1 peak) (22Rv1 cells [6])	cell cycle progression (22Rv1 cells [6])	caspase-9 activation (cleaved caspase-9, Western blotting) (22Rv1 cells [7]; 22Rv1, 2 h)	cleavage of caspase-3 (Western blotting) (22Rv1 cells [7]; 22Rv1, 48 h)	p21 expression (Western blotting) (22Rv1 cells [7]; 22Rv1, 48 h)	PARP cleavage (Western blotting) (22Rv1 cells [7]; 22Rv1, 48 h, concentrations close to IC50s)	ROS level (CM-H2DCFDA, FACS) (22Rv1 cells [8]) [%]	cells containing depolarized mitochondria (JC-1) (22Rv1 cells [9]; 2 h) [%]	cells containing depolarized mitochondria (JC-1) (22Rv1 cells [9]; 48 h) [%]	redistribution of mitochondrial proteins (cytochrome C, AIF) to cytoplasm (22Rv1 cells [10])	IC50 (colony formation) [11] [ng/mL]
6-(1,2,3,4-Tetra-O-acetyl-6-deoxy-β-D-glucopyranos-6-ylthio)-5,8-dihydroxy-7-methyl-2,3-dimethoxy-1,4-naphthoquinone [SAB-13]	10.8 ± 1.7	5 ± 1.1	~ 10 fold	2.3 ± 0.3	inhibition of glucose uptake	inhibition of glucose uptake	antagonized the cytotoxic effects	DNA fragmentation	G2/M-cell cycle arrest	activated caspase-9 shortly after treatment	cleavage of caspase-3 was observed	upregulation of p21	PARP cleavage	31.2±3.2	47.3±6.1	69.5±8.1	release of cytotoxic mitochondrial proteins to cellular cytoplasm	
COC1=C(OC)C(=O)c2c(O)c(OC)cc(O)c2C1=O [tricrozarin B]																		7 (≈ 0.025 µM)
